Like-named read-outs stand apart in the source and are kept apart here.
How the values were obtained:
[1] = test system: Trichomonas vaginalis strain GT3; assay: In vitro antiprotozoal assay (trophozoite subculture method); assay type: cell-based; conditions: for IC50: Trichomonas vaginalis, read-out: IC50 (µM) T. vaginalis
Method: (§1) The in vitro antiprotozoal assays against E. histolytica, G. intestinalis, and T. vaginalis of the 2-phenyl-2H-indazole and 2,3-diphenyl-2H-indazole derivatives were carried out following the method previously described. Metronidazole (MTZ) and albendazole (ABZ) were used as reference drugs. […] Similarly, compound 7, having a phenyl at position 2, has good activity against the three protozoa, ranking third in activity for T. vaginalis and forth against G. intestinalis and E. histolytica. […] These derivatives had groups H, COOCH3, Cl, and SO2CH3 at positions 2 and 3, substituents that induced the best response in 2-phenyl-2H-indazole derivatives. In addition, carboxylic acids 20 and 25 were of interest for comparative purposes with ester derivatives.
(§2) Trichomonas vaginalis strain GT3, Giardia intestinalis isolate IMSS:0981:1, and Entamoeba histolytica strain HM1-IMSS were used. Trophozoites of G. intestinalis were maintained in a TYI-S-33 medium supplemented with 10% calf serum and bovine bile. E. histolytica and T. vaginalis trophozoites were maintained in TYI-S-33 medium supplemented with 10% bovine serum. Briefly, 5 × 10^4 trophozoites of G. intestinalis or T. vaginalis, or 6 × 10^3 trophozoites of E. histolytica were incubated for 48 h at 37 °C with different concentrations of the compound to be tested, each added as solutions in DMSO. As a negative control, parasite cultures received an equivalent amount of DMSO only, while albendazole and metronidazole were included as positive controls. At the end of the treatment period, the cells were washed and subcultured for another 48 h in a fresh medium to which no drug was added. […] Experiments were carried out in triplicate and repeated at least twice.

[2] = test system: Entamoeba histolytica strain HM1-IMSS; assay: as above; assay type: cell-based; conditions: for IC50: Entamoeba histolytica, read-out: IC50 (µM) E. histolytica; for improvement in potency against E. histolytica relative to the analog: 17 compared with 8, 20 compared to 13, 26 compared to 21
Method: as §1, §2

[3] = test system: Giardia intestinalis isolate IMSS:0981:1; assay: as above; assay type: cell-based; conditions: for IC50: Giardia duodenalis, read-out: IC50 (µM) G. intestinalis
Method: as §1, §2

[4] = test system: Salmonella enterica serovar Typhi; assay: Disk diffusion susceptibility test; assay type: cell-based
[5] = test system: Escherichia coli strain 042 (EAEC); assay: Disk diffusion susceptibility test; assay type: cell-based; conditions: 5 mg per disc, 37 °C, 24 h
[6] = target: T1, human recombinant cyclooxygenase-2 (Homo sapiens, UniProt P35354); assay: COX inhibitor screening assay (Cayman kit); assay type: biochemical; conditions: tested at 10 µM
T1 construct: purchased Cayman Chemical 560131
T1 sequence (P35354 18-604): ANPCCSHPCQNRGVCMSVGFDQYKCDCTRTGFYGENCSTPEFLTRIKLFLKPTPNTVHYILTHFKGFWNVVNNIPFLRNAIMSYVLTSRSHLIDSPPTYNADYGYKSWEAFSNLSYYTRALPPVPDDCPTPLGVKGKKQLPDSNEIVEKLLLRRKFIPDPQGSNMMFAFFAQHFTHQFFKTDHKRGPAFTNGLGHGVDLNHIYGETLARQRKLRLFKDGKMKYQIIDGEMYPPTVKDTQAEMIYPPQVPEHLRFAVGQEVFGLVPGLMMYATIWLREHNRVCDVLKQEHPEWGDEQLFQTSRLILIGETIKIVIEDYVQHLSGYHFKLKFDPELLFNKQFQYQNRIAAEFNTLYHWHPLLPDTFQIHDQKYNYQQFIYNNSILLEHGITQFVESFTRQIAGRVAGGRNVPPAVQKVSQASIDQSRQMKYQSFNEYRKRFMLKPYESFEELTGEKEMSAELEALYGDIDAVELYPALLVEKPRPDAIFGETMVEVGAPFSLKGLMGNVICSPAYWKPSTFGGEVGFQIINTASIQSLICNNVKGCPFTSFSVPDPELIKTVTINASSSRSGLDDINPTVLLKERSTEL
Method: Additionally, molecular docking studies using AutoDock Vina software (TSRI, La Jolla, CA, USA) were performed to aid in the interpretation of the experimental results. […] Nevertheless, these compounds represent an interesting starting point towards the design of new antiparasitic compounds with an additional COX-2 inhibitory property.
Assays were carried out by duplicate following the instructions provided by the manufacturer.

Candida albicans = assay: Disk diffusion susceptibility test; assay type: cell-based; conditions: for Inhibition (positive / none) C. albicans: 5 mg per disc, 37 °C, 24 h
[7] = test system: Escherichia coli strain EDL933 (EHEC); assay: Disk diffusion susceptibility test; assay type: cell-based; conditions: for Inhibition (positive / none) E. coli 933: 5 mg per disc, 37 °C, 24 h; for zone of inhibition at 5000 µg/disc: Escherichia coli, read-out: Zone of inhibition at 5 mg per disc (mm) E. coli 933
Candida glabrata = assay: Disk diffusion susceptibility test; assay type: cell-based; conditions: for Inhibition (positive / none) C. glabrata: 5 mg per disc, 37 °C, 24 h; for zone of inhibition at 5000 µg/disc: Nakaseomyces glabratus, read-out: Zone of inhibition at 5 mg per disc (mm) C. glabrata
[8] = GT3, trophozoites, 48 h with compound then 48 h subculture without drug
[9] = trophozoites, 48 h with compound then 48 h subculture without drug
[10] = 16 relative to 7, 20 compared to 13

| SMILES | Inhibition (positive / none) E. coli 042 [5] | Inhibition (positive / none) S. Typhi ([4]; 5 mg per disc, 37 °C, 24 h) | melting point [°C] | Inhibition (positive / none) C. albicans (Candida albicans) | IC50 [1, 8] [µM] | IC50 [2, 9] [µM] | IC50 [3, 9] [µM] | Inhibition (positive / none) E. coli 933 [7] | Inhibition (positive / none) C. glabrata (Candida glabrata) | further results |
| --- | --- | --- | --- | --- | --- | --- | --- | --- | --- | --- |
| CCCSc1ccc2nc(NC(=O)OC)[nH]c2c1 [ABZ, albendazole, reference compound] |  |  |  |  |  |  |  |  |  | IC50 ([1]; GT3, 48 h): 1.591 ± 0.0113 µM; IC50 ([2]; 48 h): 56.5 ± 18.8 µM; IC50 ([3]; 48 h): 0.037 ± 0.003 µM |
| CC1(C)S[C@@H]2[C@H](NC(=O)[C@H](N)c3ccccc3)C(=O)N2[C@H]1C(=O)O [Ampicillin, ampicillin, reference compound] |  |  |  |  |  |  |  |  |  | Inhibition (positive / none) S. Typhi ([4]; positive control, ampicillin 25 µg): + |
| c1ccc(-n2cc3ccccc3n2)cc1 [Compound 7, 2-Phenyl-2H-indazole] | - | + | 81.2 to 81.6 | - | 0.118 ± 0.0218 | 0.0798 ± 0.0036 | 0.113 ± 0.0218 | - | - | zone of inhibition at 5000 µg/disc ([4]; Salmonella enterica, TYPHI, read-out: Zone of inhibition at 5 mg per disc (mm) S. Typhi): 9 mm; % of Inhibition of COX-2 [6]: Inactive |
| Clc1ccc(-n2cc3ccccc3n2)cc1 [Compound 8, 2-(4-Chlorophenyl)-2H-indazole] |  |  | 143 to 145.5 |  | 0.107 ± 0.0031 | 0.0415 ± 0.0031 | 0.0634 ± 0.0031 |  |  |  |
| COc1ccc(-n2cc3ccccc3n2)cc1 [Compound 9, 2-(4-Methoxyphenyl)-2H-indazole] |  |  | 133.2 to 135.8 |  | 0.372 ± 0.0158 | 0.154 ± 0.0158 | 0.205 ± 0.0063 |  |  |  |
| COC(=O)c1ccc(-n2cc3ccccc3n2)cc1 [Compound 10, Methyl 4-(2H-indazol-2-yl) benzoate] | - | - | 185.8 to 186.2 | - | 0.107 ± 0.0056 | 0.0218 ± 0.0028 | 0.0634 ± 0.0056 | - | - |  |
| CSc1ccc(-n2cc3ccccc3n2)cc1 [Compound 11, 2-(4-(Methylthio)phenyl)-2H-indazole] |  |  | 148.3 to 149.7 |  | 0.273 ± 0.0147 | 0.0978 ± 0.0147 | 0.218 ± 0.0088 |  |  |  |
| Oc1ccc(-n2cc3ccccc3n2)cc1 [Compound 12, 4-(2H-Indazol-2-yl) phenol] |  |  | 179 to 181 |  | 0.157 ± 0.0135 | 0.0737 ± 0.0101 | 0.119 ± 0.0067 |  |  |  |
| O=C(O)c1ccc(-n2cc3ccccc3n2)cc1 [Compound 13, 4-(2H-Indazol-2-yl) benzoic acid] |  |  | 288.3 to 288.5 |  | 0.327 ± 0.0178 | 0.0965 ± 0.0059 | 0.193 ± 0.0119 |  |  |  |
| C[S+]([O-])c1ccc(-n2cc3ccccc3n2)cc1 (centres unmarked) [Compound 14, 2-(4-(Methylsulfinyl)phenyl)-2H-indazole] |  |  | 150.1 to 152.7 |  | 0.312 ± 0.011 | 0.0878 ± 0.0083 | 0.168 ± 0.011 |  |  |  |
| CS(=O)(=O)c1ccc(-n2cc3ccccc3n2)cc1 [Compound 15, 2-(4-(Methylsulfonyl)phenyl)-2H-indazole] | - | - | 200.6 to 201.5 | - | 0.145 ± 0.0026 | 0.136 ± 0.0052 | 0.09 ± 0.0234 | - | - |  |
| Clc1ccc(-n2nc3ccccc3c2-c2ccccc2)cc1 [Compound 17, 2-(4-Chlorophenyl)-3-phenyl-2H-indazole] | - | - | 124.4 to 125 | - | 0.103 ± 0.0023 | 0.0213 ± 0.0023 | 0.0607 ± 0.0023 | + | - | improvement in potency against E. histolytica relative to the analog [2]: two-fold; zone of inhibition at 5000 µg/disc [7]: 2 mm |
| CSc1ccc(-n2nc3ccccc3c2-c2ccccc2)cc1 [Compound 19, 2-(4-(Methylthio)phenyl)-3-phenyl-2H-indazole] |  |  | 87.7 to 89 |  |  |  |  |  |  |  |
| O=C(O)c1ccc(-n2nc3ccccc3c2-c2ccccc2)cc1 [Compound 20, 4-(3-Phenyl-2H-indazol-2-yl) benzoic acid] | - | - | 129.2 to 130.1 | - | 0.111 ± 0.018 | 0.0445 ± 0.0045 | 0.0795 ± 0.0045 | + | + | improvement in potency against T. vaginalis relative to the analog [1, 10]: three-fold; improvement in potency against E. histolytica relative to the analog [2]: two-fold; improvement in potency against G. intestinalis relative to the analog [3, 10]: two-fold; zone of inhibition at 5000 µg/disc [7]: 2 mm; zone of inhibition at 5000 µg/disc (Candida glabrata): 2 mm |
| CS(=O)(=O)c1ccc(-n2nc3ccccc3c2-c2ccccc2)cc1 [Compound 21, 2-(4-(Methylsulfonyl)phenyl)-3-phenyl-2H-indazole] | - | - | 101.8 to 102.7 | - | 0.214 ± 0.0101 | 0.208 ± 0.0061 | 0.124 ± 0.0122 | - | - | inhibition at 10 µM [6]: 44.5 ± 2.65% |
| Clc1ccc(-c2c3ccccc3nn2-c2ccccc2)cc1 [Compound 22, 3-(4-Chlorophenyl)-2-phenyl-2H-indazole] | - | - | 141.1 to 142.8 | - | 0.118 ± 0.0046 | 0.0394 | 0.113 ± 0.007 | + | + | zone of inhibition at 5000 µg/disc [7]: 1 mm; zone of inhibition at 5000 µg/disc (Candida glabrata): 2 mm |
| CSc1ccc(-c2c3ccccc3nn2-c2ccccc2)cc1 [Compound 24, 3-(4-(Methylthio)phenyl)-2-phenyl-2H-indazole] |  |  | 119.3 to 121.4 |  |  |  |  |  |  |  |
| O=C(O)c1ccc(-c2c3ccccc3nn2-c2ccccc2)cc1 [Compound 25, 4-(2-Phenyl-2H-indazol-3-yl) benzoic acid] | - | - | 296.2 to 298.2 | + | 0.24 ± 0.0067 | 0.0509 | 0.121 ± 0.009 | + | - | zone of inhibition at 5000 µg/disc (Candida albicans; Candida albicans, read-out: Zone of inhibition at 5 mg per disc (mm) C. albicans): 1 mm; zone of inhibition at 5000 µg/disc [7]: 2 mm |
| Cc1ncc([N+](=O)[O-])n1CCO [MTZ, Metronidazole, reference compound] |  |  |  |  | 0.236 ± 0.016 | 0.38 ± 0.146 | 1.23 ± 0.125 |  |  |  |
